Common to all, as to format: cell-based, mice
Experiment [1] relates to GABAB-GIRK currents in LHb neurons. The conditions noted are these: for I-baclofen, residual current independent of GIRKs: barium 1 mM in the bath.
Experiment [2] relates to LHb neurons. As to the kind of experiment: Cell-attached recording of spontaneous firing of LHb neurons. The conditions noted are these: baclofen application, then CGP54626 10 μM. On the procedure:
(§1) Animals were anesthetized with Ketamine/Xylazine (50 mg/10 mg Kg-1 i.p.; Sigma-Aldrich, France). The preparation of LHb-containing brain slices was done in bubbled ice-cold 95% O2/5% CO2-equilibrated solution containing (in mM): cholineCl 110; glucose 25; NaHCO3 25; MgCl2 7; ascorbic acid 11.6; Na+-pyruvate 3.1; KCl 2.5; NaH2PO4 1.25; CaCl2 0.5. Sagittal slices (250 μm) were stored at room temperature in 95% O2/5% CO2-equilibrated artificial cerebrospinal fluid (ACSF) containing (in mM): NaCl 124; NaHCO3 26.2; glucose 11; KCl 2.5; CaCl2 2.5; MgCl2 1.3; NaH2PO4 1. Recordings (flow rate of 2.5 ml/min) were made under an Olympus-BX51 microscope (Olympus, France) at 32° C. Currents were amplified, filtered at 5 kHz and digitized at 20 kHz. Access resistance was monitored by a step of −4 mV (0.1 Hz). Experiments were discarded if the access resistance increased more than 20%.
(§2) The internal solution to measure GABAB-GIRK currents and neuronal excitability contained 140 mM potassium gluconate, 4 mM NaCl, 2 mM MgCl2, 1.1 mM EGTA, 5 mM HEPES, 2 mM Na2ATP, 5 mM sodium creatine phosphate, and 0.6 mM Na3GTP (pH 7.3), with KOH. When we measured the synaptic inhibitory or excitatory release the internal solution contained (in mM): CsCl 130; NaCl 4; MgCl2 2; EGTA 1.1; HEPES 5; Na2ATP 2; Na+-creatine-phosphate 5; Na3GTP 0.6, and spermine 0.1. The liquid junction potential was −3 mV. For cell-attached recordings the internal solution consisted in ACSF.
(§3) Cell-attached recordings in ACSF were performed in GΩ seal with a Vc=0 and Hc=0. Whole-cell voltage clamp recordings were achieved to measure GABAB-GIR currents in presence of Bicuculine (10 μM), NBQX (20 μM) and AP5 (50 μM). […] GABAB-GIRK currents were confirmed by antagonism with either 10 μM of CGP54626, a specific GABAB antagonist or 1 mM Ba^2, a selective inhibitor of inward rectifiers. For the GTPγS experiment, 100 μM of GTPγS was added to the internal solution in place of Na3GTP.

In a further experiment the test system is GIRK channels. As to the kind of experiment: GTPγS-induced Ba2+-sensitive outward current (I-GTPγS) in LHb neurons of brain slices. The following applies: GTPγS 100 μM in the internal solution. Here is the method:
as §1, §3

Experiment [3] concerns LHb neurons. As to the kind of experiment: Current-clamp excitability (evoked action potentials, input-output curve) of LHb neurons in slices. The conditions noted are these: baclofen bath application, saturating dose. Here is the method: as §1, §2
For the Okadaic acid (OA) and the CaMKII inhibitor KN93 experiments, respectively 100 nM of OA or 10 μM of KN93 were added in the internal solution. For the PP2A inhibitor LB100 experiments, LB100 (0.1 μM) was applied in the bath. Miniature excitatory postsynaptic currents (mEPSCs) were recorded in voltage-clamp mode at −60 mV in presence of bicuculine (10 μM) and TTX (1 μM). Miniature inhibitory postsynaptic currents (mIPSCs) were recorded (−60 mV) in presence of NBQX (20 μM) and TTX (1 μM). EPSCs and IPSCs were evoked through an ACSF filled monopolar glass electrode placed 200 μm from the recording site in the stria medullaris. AMPA:NMDA ratios of evoked-EPSC were obtained by AMPA-EPSC −60 mV/NMDA-EPSCs at +40 mV. Rectification Index (RI) was computed by […]-60/AMPA-EPSC+40. For the experiments in which high-frequency stimulation trains were used to determine presynaptic release probability, QX314 (5 mM) was included in the internal solution to prevent the generation of sodium spikes. Current-clamp experiments, were performed by a series of current steps (negative to positive) injected to induce action potentials (5-10 pA injection current per step, 800 ms).

Setting [4] is: KN93 10 μM intracellular dialysis.
Where [5] appears, read: Okadaic acid 100 nM intracellular dialysis.

“Also recorded” adds a separate entry of the source. Read-outs that look alike come from different tables or passages of the source.

In the case of `COc1ccc(S(=O)(=O)N(CCO)c2ccccc2CN(C)C/C=C/c2ccc(Cl)cc2)cc1` [KN93], in experiment [1] (KN93 10 μM in the internal solution, CTRL mice), the I-baclofen current stood at 106.3±18.37 pA. Further, in experiment [1] (setting [4]), the “FsE induced reduction of GABAB-GIRK currents” value is listed as “failed to recover; also recorded: does not affect” and the “I-Baclofen at baseline (control mice)” value is “did not affect”.
As to `[Ba+2]` [barium], the “Effect on I-Baclofen” value in experiment [1] (barium 1 mM) is on record as “abolished”.
Turning to `C=C1[C@@H](O)[C@@H]2O[C@]3(CC[C@H](/C=C/[C@@H](C)[C@@H]4CC(C)=C[C@@]5(O[C@H](C[C@@](C)(O)C(=O)O)CC[C@H]5O)O4)O3)CC[C@H]2O[C@@H]1[C@@H](O)C[C@H](C)[C@H]1O[C@@]2(CCCCO2)CC[C@H]1C` [Okadaic Acid], the I-baclofen current came to 130.7±25.25 pA in experiment [1] (Okadaic Acid 100 nM in the internal solution, CTRL mice) and 120.4±25.61 pA in experiment [1] (Okadaic Acid 100 nM in the internal solution, FsE mice). Further, the “I-baclofen CTRL vs FsE” value was “comparable to control mice” in experiment [1] (Okadaic Acid 100 nM intracellular dialysis, listed as OA) and “no difference between groups” in experiment [1] (setting [5]). Moreover, in experiment [1] (setting [5]), the “I-Baclofen at baseline (control mice)” value is listed as “comparable to naïve condition”.
For `C[C@H](NC[C@H](O)CP(=O)(O)CC1CCCCC1)c1ccc(Cl)c(Cl)c1` [CGP54626], the “Firing rate of LHb neurons” value is reported as 3.62±0.65 Hz in the experiment on LHb neurons [2] (CTRL mice) and 8.23±2.25 Hz with LHb neurons [2] (FsE mice). Besides, the “Reversal of I-baclofen” value in experiment [1] (CGP54626 10 μM) is on record as “fully reversed; also recorded: readily reversed”.
In the case of `Nc1nc2c(ncn2[C@@H]2O[C@H](COP(=O)(O)OP(=O)(O)OP(O)(O)=S)[C@@H](O)[C@H]2O)c(=O)[nH]1` [GTPγS, reference compound], the results for the “GTPγS-evoked Ba2+-sensitive outward current” value with GIRK channels (CTRL mice) and in the experiment with GIRK channels (FsE mice) were 92.55±21.83 pA and 38.00±5.27 pA, respectively.
In the case of `NCC(CC(=O)O)c1ccc(Cl)cc1` (centres unmarked) [baclofen], the “Firing rate of LHb neurons” value in the experiment on LHb neurons [2] (CTRL mice) came out at 0.33±0.11 Hz; with LHb neurons [2] (FsE mice), 4.89±1.40 Hz. The I baclofen in experiment [1] (1 h after exposure to fox urine (OPE mice)) came to 47.4±7.9; in experiment [1] (CTRL mice of odor predator exposure paradigm) it was 110.5±29.1. The I-baclofen in experiment [1] (CTRL mice of restraint stress procedure) is on record as 121.7±14.8; in experiment [1] (baclofen 100 μM, FsE mice, 1 hour after), 55.4±7.2 pA; in experiment [1] (baclofen 100 μM, FsE mice, 1 day after), 59.8±9.6 pA; in experiment [1] (baclofen 100 μM, FsE mice, 7 days after), 40.1±9.0 pA; in experiment [1] (baclofen 100 μM, FsE mice, 14 days after) it was 39.6±6.6 pA; in experiment [1] (baclofen 100 μM, FsE mice, 30 days after), 133.0±26.1 pA. This compound displayed an I-baclofen in experiment [1] (restraint stress (RS) mice, 1 h after the procedure) of 68.3±15.3. Besides, the entries for the “I-baclofen, residual current independent of GIRKs” value in experiment [1] (CTRL mice) and in experiment [1] (FsE mice) were 21.3±3.7 and 21.3±9.1, respectively. The results for the “Firing of LHb neurons evoked by current steps (20 pA)” value in the experiment on LHb neurons [3] (FsE animals) and in the experiment with LHb neurons [3] (control mice) were “only partially decreased” and “significantly depressed”, respectively.

Source of the values: US10413541B2, “Oxabicycloheptanes and oxabicycloheptenes for the treatment of depressive and stress disorders” (LIXTE BIOTECHNOLOGY, INC., priority 2015, dated 2019).
